Assay results from patent US9428773B2, “Methods of producing acetoin and 2,3-butanediol using photosynthetic microorganisms” (The Regents of the University of California, priority 2012, dated 2016).
One block for each compound: values may come before it.

How the values were obtained:
S. elongatus [1] = system: S. elongatus
Procedure: (§1) Unless otherwise specified, S. elongatus strains were cultured in BG-11 medium (45) with the addition of 50 mM NaHCO3. Cells were grown at 30° C. with rotary shaking (100 rpm) and light (55 μE s^−1 m^−2) provided by four 86 cm 20 W fluorescent tubes 5 cm above the cell cultures. Cell growth was monitored by measuring OD730.
(§2) To evaluate acetoin and 23BD toxicity, we tested the growth of S. elongatus over 72 h in the presence of 23BD or acetoin.

S. elongatus [2] = assay: growth of S. elongatus over 72 h in the presence of 23BD or acetoin (toxicity)
Procedure: as §1, §2

S. elongatus [3] = conditions: cited from earlier work

- growth of S. elongatus in the presence of 10 g/L 23BD (S. elongatus [1]): barely inhibited
- growth of S. elongatus in the presence of 30 g/L 23BD (S. elongatus [1]): still exhibited growth
Structure (SMILES): CC(O)C(C)O (centres unmarked) [23BD, 2,3-butanediol]
- toxicity in S. elongatus (in words) (S. elongatus [1]): low toxicity

Structure (SMILES): CC(=O)C(C)O (centres unmarked) [acetoin]
- decrease of growth of S. elongatus (S. elongatus [2]; 0.2 g/L acetoin, 72 h): approximately 50%
- concentration at which growth of S. elongatus stopped (S. elongatus [2]; 72 h): 1000 µg/mL
- concentration above which toxic in S. elongatus (S. elongatus [2]; FIG. 2A): above 0.1 g/L

Structure (SMILES): CC(C)CO [isobutanol]
- concentration that prevents growth of S. elongatus (S. elongatus [3]): 1000 µg/mL

Structure (SMILES): CC(C)C=O [isobutyraldehyde]
- concentration that prevents growth of S. elongatus (S. elongatus [3]): 1000 µg/mL
